Measured values reported in ChEMBL document CHEMBL3091419, “Cytidine derivatives as IspF inhibitors of Burkolderia pseudomallei” (Bioorg Med Chem Lett, 2013).
The source made the active and inactive calls. No cut-off for these calls is given here.

Key:
[1] = biological target: T1, 2-C-methyl-D-erythritol 2,4-cyclodiphosphate synthase (Burkholderia pseudomallei (strain K96243), UniProt Q63T71); test: Binding affinity to Burkolderia pseudomallei IspF by surface plasmon resonance method
T1 sequence (Q63T71 whole entry): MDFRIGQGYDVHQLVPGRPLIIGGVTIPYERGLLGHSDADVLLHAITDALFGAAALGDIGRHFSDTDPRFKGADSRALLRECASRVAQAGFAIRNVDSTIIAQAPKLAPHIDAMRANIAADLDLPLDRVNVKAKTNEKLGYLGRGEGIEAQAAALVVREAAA

Plasmodium falciparum [2] = test: Antimicrobial activity against Plasmodium falciparum D6 at 40 uM; format: functional, organism-based
Plasmodium falciparum [3] = test: Antimicrobial activity against Plasmodium falciparum C235 at 40 uM; format: functional, organism-based
[4] = test system: Burkholderia thailandensis; test: Antimicrobial activity against Burkholderia thailandensis at 1 mM; format: functional
Plasmodium falciparum [5] = test: Antimicrobial activity against Plasmodium falciparum W2 at 40 uM; format: functional, organism-based

Structure (SMILES)	Kd [1]	Activity (Plasmodium falciparum [2])	Activity (Plasmodium falciparum [3])	Activity [4]	Activity (Plasmodium falciparum [5])
Oc1ccc(-n2ccnc2)cc1	> 500 µM	–	–	–	–
OCc1cn2ccsc2n1	135 µM	–	–	–	–
Nc1ccn([C@@H]2O[C@H](CNC(=O)c3ccnc4nc[nH]c34)[C@@H](O)[C@H]2O)c(=O)n1	90 µM	inactive	inactive	inactive	inactive
Nc1ccn([C@@H]2O[C@H](CNC(=O)c3cn4ccsc4n3)[C@@H](O)[C@H]2O)c(=O)n1	70 µM	inactive	inactive	inactive	inactive
Nc1ccn([C@@H]2O[C@H](CNC(=O)c3ccncc3)[C@@H](O)[C@H]2O)c(=O)n1	180 µM	inactive	inactive	inactive	inactive
Nc1ccn([C@@H]2O[C@H](CNC(=O)Cc3cn4ccsc4n3)[C@@H](O)[C@H]2O)c(=O)n1	148 µM	inactive	inactive	inactive	inactive
Nc1ccn([C@@H]2O[C@H](CNC(=O)c3cscn3)[C@@H](O)[C@H]2O)c(=O)n1	200 µM	inactive	inactive	inactive	inactive
